Measurements from ChEMBL document CHEMBL2040805, “Cyclotides from an extreme habitat: characterization of cyclic peptides from Viola abyssinica of the Ethiopian highlands” (J Nat Prod, 2011).

Test system: U-937/GTB
Test: Cytotoxicity against human U937/GTB cells after 72 hrs by fluorometric microculture cytotoxicity assay
Format: functional, cell-based

Compound | IC50
CC[C@H](C)[C@@H]1NC(=O)[C@@H]2CCCN2C(=O)[C@H](Cc2c[nH]c3ccccc23)NC(=O)[C@H](CO)NC(=O)[C@@H]2CSSC[C@@H]3NC(=O)[C@H]([C@@H](C)O)NC(=O)[C@H](CCC(=O)O)NC(=O)CNC(=O)[C@@H]4CSSC[C@H](NC(=O)CNC(=O)[C@@H]5CCCN5C(=O)[C@H]([C@@H](C)O)NC(=O)[C@H](CC(N)=O)NC(=O)[C@H](CSSC[C@H](NC1=O)C(=O)N[C@@H]([C@@H](C)O)C(=O)N[C@@H](CCCNC(=N)N)C(=O)N[C@@H](CC(N)=O)C(=O)NCC(=O)N[C@@H](CC(C)C)C(=O)N1CCC[C@H]1C(=O)N[C@@H](C(C)C)C(=O)N4)NC(=O)[C@H]([C@@H](C)O)NC(=O)CNC(=O)CNC(=O)[C@H](C)NC3=O)C(=O)N[C@@H](CO)C(=O)N2 | 7600 nM
CC(C)C[C@@H]1NC(=O)CNC(=O)[C@H](CC(N)=O)NC(=O)[C@H](CCCNC(=N)N)NC(=O)[C@H]([C@@H](C)O)NC(=O)[C@@H]2CSSC[C@@H]3NC(=O)[C@H]([C@@H](C)O)NC(=O)CNC(=O)CNC(=O)[C@H](Cc4ccccc4)NC(=O)[C@@H]4CSSC[C@H](NC(=O)[C@H]([C@@H](C)O)NC(=O)[C@H](CSSC[C@H](NC(=O)[C@H](C(C)C)NC(=O)[C@@H]5CCCN5C1=O)C(=O)NCC(=O)N[C@@H](CCC(=O)O)C(=O)N[C@H]([C@@H](C)O)CN4)NC(=O)CNC(=O)[C@@H]1CCCN1C(=O)[C@H]([C@@H](C)O)NC(=O)[C@H](CC(N)=O)NC3=O)C(=O)N[C@@H](CC(=O)O)C(=O)N1CCC[C@H]1C(=O)N[C@@H](Cc1c[nH]c3ccccc13)C(=O)N1CCC[C@H]1C(=O)N[C@@H](C(C)C)C(=O)N2 | 2600 nM
COc1cccc2c1C(=O)c1c(O)c3c(c(O)c1C2=O)C[C@@](O)(C(=O)CO)C[C@@H]3O[C@H]1C[C@H](N)[C@H](O)[C@H](C)O1 [DOXORUBICIN] | 160 nM
